“And” between values parts separate entries of the source, which are not always exact repeats. Equal entries are not always repeated. Inconclusive results and toxic doses are left out. How the source made its calls: active means survival T/C of 150% or more; inactive means T/C below 125% in these data.
Tested on: P388 leukemia ip, CD2F1 mice, survival T/C
Experiment: NCI In Vivo Anticancer Drug Screen. Data for tumor model P388 Leukemia (intraperitoneal) in CD2F1 (CDF1) mice
Details: endpoint: median survival time, higher = longer survival
Summary of the method: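 Mice carrying the transplanted tumor received test compound or vehicle. Survival was recorded in each group, and the value is the treated-group measurement divided by that of the vehicle-treated control group.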

[1] = dose: 12.5 mg/kg/injection, schedule: Q01DX009 (ip), vehicle: saline with Tween-80
[2] = dose: 25.0 mg/kg/injection, schedule: Q01DX009 (ip), vehicle: saline with Tween-80
[3] = dose: 50.0 mg/kg/injection, schedule: Q01DX009 (ip), vehicle: saline with Tween-80
[4] = dose: 100.0 mg/kg/injection, schedule: Q01DX009 (ip), vehicle: saline with Tween-80
[5] = dose: 50.0 mg/kg/injection, schedule: Q01DX005 (ip), vehicle: Klucel (hydroxypropylcellulose) (HPC)
[6] = dose: 100.0 mg/kg/injection, schedule: Q01DX005 (ip), vehicle: Klucel (hydroxypropylcellulose) (HPC)
[7] = dose: 200.0 mg/kg/injection, schedule: Q01DX009 (ip), vehicle: saline with Tween-80

Measured: T/C

O=C(Nc1cccc(O)c1)C(Cl)=C(Cl)Cl
inactive: dose: 3.12 mg/kg/injection, schedule: Q01DX005 (ip), vehicle: DMSO 109 % of control | dose: 6.25 mg/kg/injection, schedule: Q01DX005 (ip), vehicle: DMSO 104 % of control | dose: 6.25 mg/kg/injection, schedule: Q01DX005 (ip), vehicle: saline with Tween-80 101 % of control | dose: 12.5 mg/kg/injection, schedule: Q01DX005 (ip), vehicle: DMSO 109 % of control | dose: 12.5 mg/kg/injection, schedule: Q01DX005 (ip), vehicle: saline with Tween-80 115 % of control | dose: 25.0 mg/kg/injection, schedule: Q01DX005 (ip), vehicle: DMSO 108 % of control | dose: 25.0 mg/kg/injection, schedule: Q01DX005 (ip), vehicle: saline with Tween-80 110 % of control | dose: 50.0 mg/kg/injection, schedule: Q01DX005 (ip), vehicle: DMSO 104 % of control

C[Si](C)(C)Cn1cc(F)c(=O)n(C[Si](C)(C)C)c1=O
inactive: dose: 60.0 mg/kg/injection, schedule: Q01DX005 (ip), vehicle: Klucel (hydroxypropylcellulose) (HPC) 103 % of control | dose: 120.0 mg/kg/injection, schedule: Q01DX005 (ip), vehicle: Klucel (hydroxypropylcellulose) (HPC) 103 % of control | dose: 240.0 mg/kg/injection, schedule: Q01DX005 (ip), vehicle: Klucel (hydroxypropylcellulose) (HPC) 97 % of control

CC1C(=O)N(c2ccccc2)c2nc3ccccc3nc21 (stereo not given)
inactive: dose: 100.0 mg/kg/injection, schedule: Q04DX003 (ip), vehicle: saline 88 % of control | dose: 200.0 mg/kg/injection, schedule: Q04DX003 (ip), vehicle: saline 97 % of control | dose: 400.0 mg/kg/injection, schedule: Q04DX003 (ip), vehicle: saline 111 % of control

NNC(=O)c1ccc(-c2ccccc2)cc1
inactive: dose: 6.25 mg/kg/injection, schedule: Q01DX009 (ip), vehicle: Klucel (hydroxypropylcellulose) (HPC) 102 % of control | dose: 12.5 mg/kg/injection, schedule: Q01DX009 (ip), vehicle: Klucel (hydroxypropylcellulose) (HPC) 107 % of control | dose: 25.0 mg/kg/injection, schedule: Q01DX009 (ip), vehicle: Klucel (hydroxypropylcellulose) (HPC) 102 % of control | dose: 50.0 mg/kg/injection, schedule: Q01DX009 (ip), vehicle: Klucel (hydroxypropylcellulose) (HPC) 110 % of control | dose: 100.0 mg/kg/injection, schedule: Q01DX009 (ip), vehicle: Klucel (hydroxypropylcellulose) (HPC) 116 % of control

CON/C=C(C#N)/C=C/C=Nc1ccc(S(=O)(=O)N=C(N)N)cc1
inactive: [1] 98 % of control | [2] 93 % of control | [3] 87 % of control and 92 % of control

Cn1c([N+](=O)[O-])cnc1/C=N\N1CC(CN2CCOCC2)OC1=O (stereo not given)
inactive: dose: 50.0 mg/kg/injection, schedule: Q01DX009 (ip), vehicle: suspension in saline 100 % of control | dose: 100.0 mg/kg/injection, schedule: Q01DX009 (ip), vehicle: suspension in saline 100 % of control | dose: 200.0 mg/kg/injection, schedule: Q01DX009 (ip), vehicle: suspension in saline 100 % of control

CSc1ncc(/C(C)=N\N=C(N)N)c(C)n1
inactive: dose: 15.0 mg/kg/injection, schedule: Q01DX005 (ip), vehicle: saline 103 % of control and 97 % of control | dose: 30.0 mg/kg/injection, schedule: Q01DX005 (ip), vehicle: saline 93 % of control and 98 % of control | dose: 60.0 mg/kg/injection, schedule: Q01DX005 (ip), vehicle: saline 94 % of control and 97 % of control | dose: 120.0 mg/kg/injection, schedule: Q01DX005 (ip), vehicle: saline 99 % of control

OC(C1CO1)C(O)C1CO1 (stereo not given)
active: dose: 0.5 mg/kg/injection, schedule: Q01DX009 (ip), vehicle: water 175 % of control | dose: 1.0 mg/kg/injection, schedule: Q01DX009 (ip), vehicle: saline 167 % of control and 179 % of control | dose: 1.0 mg/kg/injection, schedule: Q01DX009 (ip), vehicle: water 185 % of control | dose: 1.5 mg/kg/injection, schedule: Q01DX009 (ip), vehicle: saline 155 % of control and 196 % of control | dose: 2.0 mg/kg/injection, schedule: Q01DX009 (ip), vehicle: saline with Tween-80 159 % of control | dose: 2.0 mg/kg/injection, schedule: Q01DX009 (ip), vehicle: saline 194 % of control and 207 % of control | dose: 2.0 mg/kg/injection, schedule: Q01DX009 (ip), vehicle: water 256 % of control | dose: 3.0 mg/kg/injection, schedule: Q01DX005 (ip), vehicle: saline 170 % of control and 181 % of control | dose: 3.0 mg/kg/injection, schedule: Q01DX009 (ip), vehicle: saline 227 % of control | dose: 4.0 mg/kg/injection, schedule: Q01DX005 (ip), vehicle: saline 216 % of control and 229 % of control | dose: 4.0 mg/kg/injection, schedule: Q01DX009 (ip), vehicle: saline with Tween-80 213 % of control | dose: 4.0 mg/kg/injection, schedule: Q01DX009 (ip), vehicle: saline 291 % of control | dose: 4.5 mg/kg/injection, schedule: Q01DX005 (ip), vehicle: saline 190 % of control and 225 % of control | dose: 6.7 mg/kg/injection, schedule: Q01DX001 (ip), vehicle: saline 157 % of control and 179 % of control | dose: 6.7 mg/kg/injection, schedule: Q01DX005 (ip), vehicle: saline 266 % of control | dose: 6.7 mg/kg/injection, schedule: Q04DX003 (ip), vehicle: saline 243 % of control and 254 % of control | dose: 10.0 mg/kg/injection, schedule: Q04DX003 (ip), vehicle: saline 281 % of control and 298 % of control
inactive: dose: 0.5 mg/kg/injection, schedule: Q01DX005 (ip), vehicle: saline 113 % of control and 124 % of control | dose: 1.3 mg/kg/injection, schedule: Q01DX005 (ip), vehicle: saline 121 % of control | dose: 6.0 mg/kg/injection, schedule: Q01DX009 (ip), vehicle: saline 89 % of control | dose: 8.0 mg/kg/injection, schedule: Q01DX005 (ip), vehicle: saline 89 % of control | dose: 8.0 mg/kg/injection, schedule: Q01DX009 (ip), vehicle: saline with Tween-80 100 % of control | dose: 8.0 mg/kg/injection, schedule: Q01DX009 (ip), vehicle: saline 103 % of control | dose: 12.5 mg/kg/injection, schedule: Q04DX003 (ip), vehicle: saline 108 % of control | [2] 100 % of control | dose: 25.0 mg/kg/injection, schedule: Q04DX003 (ip), vehicle: saline sonified 100 % of control | [3] 104 % of control | dose: 50.0 mg/kg/injection, schedule: Q04DX003 (ip), vehicle: saline sonified 100 % of control | [4] 109 % of control | dose: 100.0 mg/kg/injection, schedule: Q04DX003 (ip), vehicle: saline sonified 104 % of control

CC(NNC(=S)N1CC2CCC(CC2)C1)c1cccc[n+]1[O-] (stereo not given)
inactive: dose: 50.0 mg/kg/injection, schedule: Q01DX005 (ip), vehicle: saline with Tween-80 101 % of control | dose: 100.0 mg/kg/injection, schedule: Q01DX005 (ip), vehicle: saline with Tween-80 100 % of control | dose: 200.0 mg/kg/injection, schedule: Q01DX005 (ip), vehicle: saline with Tween-80 100 % of control

COC(=O)/C(=C1/OC(=O)C(c2ccc(Cl)cc2)=C1O)c1ccc(OC)cc1
inactive: [5] 102 % of control | [6] 94 % of control

O=C1CC(SC(=S)C2CCCC2=O)C(=O)O1 (stereo not given)
inactive: [1] 109 % of control and 118 % of control | [2] 109 % of control and 118 % of control | [3] 118 % of control

CC/C(C)=N\Nc1cc(C)[nH]c(=O)c1
inactive: dose: 100.0 mg/kg/injection, schedule: Q01DX001 (ip), vehicle: saline with Tween-80 105 % of control | dose: 200.0 mg/kg/injection, schedule: Q01DX001 (ip), vehicle: saline with Tween-80 100 % of control | dose: 400.0 mg/kg/injection, schedule: Q01DX001 (ip), vehicle: saline with Tween-80 91 % of control

CC(=O)NCCCCCC(=O)N(C)C
inactive: [5] 96 % of control | [6] 90 % of control | dose: 200.0 mg/kg/injection, schedule: Q01DX005 (ip), vehicle: Klucel (hydroxypropylcellulose) (HPC) 98 % of control | dose: 400.0 mg/kg/injection, schedule: Q01DX005 (ip), vehicle: Klucel (hydroxypropylcellulose) (HPC) 98 % of control

Cc1onc(-c2ccccc2Cl)c1C(=O)SCC(=O)Nc1cc(C(F)(F)F)cc(C(F)(F)F)c1
inactive: [3] 98 % of control | [4] 100 % of control | [7] 89 % of control

O=[N+]([O-])c1ccc(NN=NCCCl)cc1
inactive: dose: 12.5 mg/kg/injection, schedule: Q01DX009 (ip), vehicle: distilled water + Tween-80 109 % of control

S=C1N=C2c3ccccc3C2C(=S)S1 (stereo not given)
inactive: [2] 93 % of control | [3] 101 % of control and 105 % of control | [4] 102 % of control and 120 % of control and 91 % of control | [7] 100 % of control and 104 % of control and 87 % of control

O=C1OC(OC/C(Br)=C(\Br)COC2OC(=O)C(Cl)=C2Cl)C(Cl)=C1Cl (stereo not given)
inactive: dose: 15.0 mg/kg/injection, schedule: Q01DX005 (ip), vehicle: saline with Tween-80 103 % of control | dose: 30.0 mg/kg/injection, schedule: Q01DX005 (ip), vehicle: saline with Tween-80 103 % of control | dose: 60.0 mg/kg/injection, schedule: Q01DX005 (ip), vehicle: saline with Tween-80 112 % of control

— PubChem BioAssay AID330 (DTP/NCI, 2004)
